According to PubChem BioAssay AID248 (DTP/NCI, 2004):
Where “and” joins values, the source holds several entries; their conditions need not be identical. Equal entries are not always repeated. Toxic doses and inconclusive results are not listed.

Tested on: L1210 leukemia ip in BDF1 mice, survival T/C
Assay: NCI In Vivo Anticancer Drug Screen. Data for tumor model L1210 Leukemia (intraperitoneal) in B6D2F1 (BDF1) mice
Details: endpoint: mean survival time, higher = longer survival
How it was run: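 Each compound was tested against a transplantable tumor grown in mice. The endpoint was survival, with treated animals benchmarked against vehicle controls as a simple ratio.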

[1] = dose: 100.0 mg/kg/injection, schedule: Q01DX009 (ip), vehicle: Klucel (hydroxypropylcellulose) (HPC)
[2] = dose: 100.0 mg/kg/injection, schedule: Q04DX002 (ip), vehicle: Klucel (hydroxypropylcellulose) (HPC)
[3] = dose: 100.0 mg/kg/injection, schedule: Q04DX003 (ip), vehicle: Klucel (hydroxypropylcellulose) (HPC)
[4] = dose: 200.0 mg/kg/injection, schedule: Q01DX009 (ip), vehicle: Klucel (hydroxypropylcellulose) (HPC)
[5] = dose: 200.0 mg/kg/injection, schedule: Q04DX002 (ip), vehicle: Klucel (hydroxypropylcellulose) (HPC)
[6] = dose: 200.0 mg/kg/injection, schedule: Q04DX003 (ip), vehicle: Klucel (hydroxypropylcellulose) (HPC)
[7] = dose: 400.0 mg/kg/injection, schedule: Q01DX009 (ip), vehicle: Klucel (hydroxypropylcellulose) (HPC)
[8] = dose: 400.0 mg/kg/injection, schedule: Q04DX002 (ip), vehicle: Klucel (hydroxypropylcellulose) (HPC)
[9] = dose: 400.0 mg/kg/injection, schedule: Q04DX003 (ip), vehicle: Klucel (hydroxypropylcellulose) (HPC)
[10] = dose: 100.0 mg/kg/injection, schedule: Q04DX003 (ip), vehicle: saline with Tween-80
[11] = dose: 200.0 mg/kg/injection, schedule: Q04DX003 (ip), vehicle: saline with Tween-80
[12] = dose: 25.0 mg/kg/injection, schedule: Q04DX003 (ip), vehicle: saline
[13] = dose: 50.0 mg/kg/injection, schedule: Q04DX003 (ip), vehicle: saline
[14] = dose: 100.0 mg/kg/injection, schedule: Q01DX009 (ip), vehicle: saline
[15] = dose: 100.0 mg/kg/injection, schedule: Q04DX003 (ip), vehicle: saline
[16] = dose: 200.0 mg/kg/injection, schedule: Q04DX003 (ip), vehicle: saline
[17] = dose: 400.0 mg/kg/injection, schedule: Q04DX003 (ip), vehicle: saline
[18] = dose: 100.0 mg/kg/injection, schedule: Q01DX001 (ip), vehicle: saline
[19] = dose: 200.0 mg/kg/injection, schedule: Q01DX001 (ip), vehicle: saline
[20] = dose: 400.0 mg/kg/injection, schedule: Q01DX001 (ip), vehicle: saline
[21] = dose: 400.0 mg/kg/injection, schedule: Q04DX003 (ip), vehicle: saline with Tween-80

`Cc1cc(C)nc(NC(=O)Nc2cccc(C(F)(F)F)c2)c1` was tested, and the T/C (dose: 100.0 mg/kg/injection, schedule: Q01DX001 (ip), vehicle: Klucel (hydroxypropylcellulose) (HPC)) was 102 % of control, the T/C [1] was 104 % of control and 113 % of control and the T/C [2] was 101 % of control and 117 % of control. The T/C [3] was 94 % of control, the T/C (dose: 200.0 mg/kg/injection, schedule: Q01DX001 (ip), vehicle: Klucel (hydroxypropylcellulose) (HPC)) was 94 % of control and the T/C [4] was 93 % of control and 109 % of control. The T/C [5] was 96 % of control and 98 % of control, the T/C [6] was 111 % of control and the T/C (dose: 400.0 mg/kg/injection, schedule: Q01DX001 (ip), vehicle: Klucel (hydroxypropylcellulose) (HPC)) was 98 % of control. For the same molecule, the T/C [7] was 104 % of control and 107 % of control, the T/C [8] was 98 % of control and 99 % of control and the T/C [9] was 99 % of control.

With `C=CS(=O)(=O)c1ccc([N+](=O)[O-])cc1` the T/C (dose: 6.25 mg/kg/injection, schedule: Q04DX002 (ip), vehicle: saline with Tween-80) was 92 % of control, the T/C (dose: 12.5 mg/kg/injection, schedule: Q04DX002 (ip), vehicle: saline with Tween-80) was 101 % of control and the T/C (dose: 25.0 mg/kg/injection, schedule: Q04DX002 (ip), vehicle: saline with Tween-80) was 94 % of control.

For `COC(=O)c1ccccc1C(=O)Nc1cc(C(F)(F)F)ccc1Cl`, the T/C [1] was 100 % of control, the T/C [4] was 103 % of control and the T/C [7] was 100 % of control.

With `COC(=O)C1Cc2c([nH]c3ccccc23)CN1` (stereo not drawn) the T/C (dose: 9.0 mg/kg/injection, schedule: Q01DX009 (ip), vehicle: saline) was 95 % of control, the T/C (dose: 9.0 mg/kg/injection, schedule: Q04DX003 (ip), vehicle: saline) was 100 % of control and the T/C (dose: 18.0 mg/kg/injection, schedule: Q01DX009 (ip), vehicle: saline) was 101 % of control. For the same molecule, the T/C (dose: 18.0 mg/kg/injection, schedule: Q04DX003 (ip), vehicle: saline) was 98 % of control, the T/C (dose: 37.0 mg/kg/injection, schedule: Q01DX009 (ip), vehicle: saline) was 105 % of control and the T/C (dose: 37.0 mg/kg/injection, schedule: Q04DX003 (ip), vehicle: saline) was 93 % of control.

For `CC(C)=CCC(=O)Oc1ccccc1C(=O)O`, the T/C [10] was 92 % of control and the T/C [11] was 102 % of control.

`CCCCCC(=O)/C=C/CC(CCCCCCC#N)C(CC(OC)OC)[N+](=O)[O-]` (stereo not drawn) was tested, and the T/C [3] was 100 % of control, the T/C [6] was 96 % of control and the T/C [9] was 96 % of control.

For `COc1cc(C(=O)OCCCN2CCOCC2)cc(OC)c1OC`, the T/C (dose: 25.0 mg/kg/injection, schedule: Q01DX009 (ip), vehicle: saline) was 107 % of control, the T/C [12] was 106 % of control and the T/C (dose: 50.0 mg/kg/injection, schedule: Q01DX009 (ip), vehicle: saline) was 92 % of control. The T/C [13] was 101 % of control, the T/C [14] was 92 % of control and the T/C [15] was 98 % of control. For the same molecule, the T/C (dose: 200.0 mg/kg/injection, schedule: Q01DX009 (ip), vehicle: saline) was 105 % of control, the T/C [16] was 98 % of control and the T/C (dose: 400.0 mg/kg/injection, schedule: Q01DX009 (ip), vehicle: saline) was 100 % of control. For the same molecule, the T/C [17] was 95 % of control.

`CC(=O)Oc1ccc2nccc(C)c2c1` was tested, and the T/C [18] was 100 % of control, the T/C [19] was 100 % of control and the T/C [20] was 100 % of control.

In the case of `CC(=O)Nc1ccc(Cc2ccc(Br)cc2)cc1`, the T/C [18] is reported as 96 % of control and the T/C [19] is reported as 106 % of control.

With `CCCCn1cnc2c(=O)n(C)c(=O)n(C)c21` the T/C [18] was 96 % of control and the T/C [19] was 94 % of control.

With `Cc1ccccc1-n1c(C)cc(C(=O)O)c1C` the T/C [1] was 110 % of control, the T/C [3] was 102 % of control and the T/C [4] was 93 % of control. The T/C [6] was 106 % of control, the T/C [7] was 98 % of control and the T/C [9] was 88 % of control.

In the case of `Cc1c2cnccc2c(C)c2c1c1ccccc1n2CCN(C)C`, the T/C (dose: 12.5 mg/kg/injection, schedule: Q04DX003 (ip), vehicle: saline) is reported as 105 % of control, the T/C [12] is reported as 97 % of control and the T/C [13] is reported as 102 % of control. The T/C (dose: 300.0 mg/kg/injection, schedule: Q04DX003 (ip), vehicle: saline) was 113 % of control.

`COc1c(NS(=O)(=O)c2ccccc2)cc2c3c(cccc13)CC2` was tested, and the T/C [10] was 97 % of control, the T/C [11] was 93 % of control and the T/C [21] was 101 % of control.

In the case of `C1CC[N+]2=C(C1)OCCC2`, the T/C (dose: 30.0 mg/kg/injection, schedule: Q01DX009 (ip), vehicle: saline) is reported as 93 % of control, the T/C (dose: 44.0 mg/kg/injection, schedule: Q01DX009 (ip), vehicle: saline) is reported as 100 % of control and the T/C (dose: 60.0 mg/kg/injection, schedule: Q01DX009 (ip), vehicle: saline) is reported as 106 % of control. For the same molecule, the T/C (dose: 66.0 mg/kg/injection, schedule: Q01DX009 (ip), vehicle: saline) was 103 % of control, the T/C [14] was 102 % of control and 103 % of control and the T/C [15] was 101 % of control. The T/C (dose: 150.0 mg/kg/injection, schedule: Q01DX009 (ip), vehicle: saline) was 100 % of control and 104 % of control, the T/C [16] was 101 % of control and the T/C [17] was 91 % of control.

For `CC(=O)OCC1OC(Sc2cc(Cl)ccc2Cl)C(OC(C)=O)C(OC(C)=O)C1OC(C)=O` (stereo not drawn), the T/C [18] was 100 % of control, the T/C [19] was 94 % of control and the T/C [20] was 100 % of control.

With `O=c1[nH]c(=S)nc2nc[nH]n12` the T/C [15] was 97 % of control, the T/C [16] was 102 % of control and the T/C [17] was 105 % of control.

With `O=C(N/N=C/c1ccccc1)C(Oc1ccccc1)c1ccccc1` (stereo not drawn) the T/C (dose: 100.0 mg/kg/injection, schedule: Q01DX001 (ip), vehicle: carboxymethylcellulose (CMC)) was 94 % of control, the T/C (dose: 200.0 mg/kg/injection, schedule: Q01DX001 (ip), vehicle: carboxymethylcellulose (CMC)) was 94 % of control and the T/C (dose: 400.0 mg/kg/injection, schedule: Q01DX001 (ip), vehicle: carboxymethylcellulose (CMC)) was 100 % of control.

In the case of `Cc1ccc(OCCO)cc1C`, the T/C [2] is reported as 120 % of control, the T/C [5] is reported as 92 % of control and the T/C [8] is reported as 92 % of control.

In the case of `COC(=O)C1(C(=O)OC)CC1CCl` (stereo not drawn), the T/C (dose: 100.0 mg/kg/injection, schedule: Q01DX009 (ip), vehicle: saline with Tween-80) is reported as 96 % of control, the T/C [10] is reported as 101 % of control and the T/C (dose: 200.0 mg/kg/injection, schedule: Q01DX009 (ip), vehicle: saline with Tween-80) is reported as 105 % of control. For the same molecule, the T/C [11] was 101 % of control, the T/C (dose: 400.0 mg/kg/injection, schedule: Q01DX009 (ip), vehicle: saline with Tween-80) was 93 % of control and the T/C [21] was 95 % of control.

In the case of `COc1ccc(CC(N)C(=O)OCc2ccccc2)cc1N(CCCl)CCCl` (stereo not drawn), the T/C (dose: 0.08 mg/kg/injection, schedule: Q01DX009 (ip), vehicle: saline) is reported as 113 % of control, the T/C (dose: 0.15 mg/kg/injection, schedule: Q01DX009 (ip), vehicle: saline) is reported as 118 % of control and the T/C (dose: 0.3 mg/kg/injection, schedule: Q01DX009 (ip), vehicle: saline) is reported as 118 % of control. The T/C (dose: 0.75 mg/kg/injection, schedule: Q01DX001 (ip), vehicle: saline) was 110 % of control, the T/C (dose: 1.5 mg/kg/injection, schedule: Q01DX001 (ip), vehicle: saline) was 104 % of control and the T/C (dose: 6.0 mg/kg/injection, schedule: Q01DX009 (ip), vehicle: saline) was 93 % of control. The T/C (dose: 12.5 mg/kg/injection, schedule: Q01DX001 (ip), vehicle: saline) was 155 % of control.
